One series has as its system maize. Put plainly: Field trial, phytotoxicity to maize (post-emergence). As to the method:
(§1) The field experiments were carried out in plots of 8 to 10 m^2, and each experiment was carried out in 2 to 4 replications. After the crop plants had been sown, the test preparations were applied pre-emergence, or in the 2-6-leaf stage, using plot sprayers. The spray volume was 100-300 l water/ha; it was applied by means of flat-jet nozzles at a pressure of 2-3 bar. Evaluation was done by visual scoring. The effects on the crop plants or on the broad-leaved weeds/grass weeds were estimated in comparison with untreated control plots using a percentage scale (0-100%). After application, the plants were scored 3-4 times at intervals of approx. 14, 28, 42 days after application. The results represent averages over 2-4 replications. […] Anti-weed action should show efficacies of ≧60%. From sowing until the experiments were concluded, they were exposed to the natural weather conditions (precipitation, temperature, atmospheric humidity, insolation), as they are characteristic for the experimental sites.

The test system of another series is Abutilon theophrastis. Nature of the series: Field trial, action on grass weeds/broad-leaved weeds (post-emergence). Format: in vivo. As to conditions: 100 g a.i./ha. On the procedure:
as §1

For the next series, the system named is Panicum minor. Described as above. It counts as in vivo. As to conditions: 100 g a.i./ha. On the procedure:
as §1

Another series relates to Setaria faberi. The series is described as above. Format: in vivo. As to conditions: 100 g a.i./ha. On the procedure: as §1

The structures appear in SMILES notation.

For `COc1cc(OC)nc(NC(=O)NS(=O)(=O)c2cc(NC=O)ccc2C(=O)N(C)C)n1` [Herbicide 2, N,N-Dimethyl-2-[3-(4,6-dimethoxypyrimidin-2-yl)ureido-sulfonyl]-4-formylaminobenzamide], the “Phytotoxicity to maize [%] 14 dat” value in the series with maize (maize, in vivo, 14 days) is listed as 13%. Besides, the “Phytotoxicity to maize [%] 42 dat” value in the series on maize (maize, in vivo, 42 days) was 7%.

Consider `CCOC(=O)C1=NOC(c2ccccc2)(c2ccccc2)C1` [Safener II-9, Ethyl 5,5-diphenyl-2-isoxazoline-3-carboxylate], for which the “Phytotoxicity to maize [%] 14 dat” value with maize (field trial, 4-leaf stage (Table 11), 120 g a.i./ha, 14 days after treatment) amounted to 0%; in the series with maize (field trial, 4-leaf stage, post-emergence, 100 g a.i./ha, 14 days after treatment), 0%; in the series with maize (field trial, mixture with sulfonylureas, post-emergence (Table 13), 120 g a.i./ha, 14 days after treatment) it was 0%. Further, the “Phytotoxicity to maize [%] 42 dat” value in the series on maize (field trial, 4-leaf stage (Table 11), 120 g a.i./ha, 42 days after treatment) is recorded as 0%; in the series with maize (field trial, mixture with sulfonylureas, post-emergence (Table 13), 120 g a.i./ha, 42 days after treatment) it was 0%. In addition, in the series with maize (field trial, 4-leaf stage, post-emergence, 100 g a.i./ha, 31 days after treatment), the “Phytotoxicity to maize [%] 31 dat” value is reported as 0%. Moreover, the “Phytotoxicity [%] Maize” value with maize (field trial, post-emergence (Table 12), 100 g a.i./ha) is given as 0%. The “Phytotoxicity [%] Abutilon theophrastis” value in the series on Abutilon theophrastis was found to be 0%. Further, in the series on Panicum minor, the “Phytotoxicity [%] Panicum minor” value is listed as 0%. Further, the “Phytotoxicity [%] Setaria faberi” value in the series with Setaria faberi is reported as 0%.

For the origin of these results see patent publication US8748343B2, “Herbicide/safener combintions” (Bayer Cropscience AG, priority 1998, dated 2014).
